How the values were obtained:
Venturia inaequalis [1] = assay: Inhibition of phytopathogenic fungi, field test on affected potato plants; type: in vivo; details: 5 m^2 plots of affected potato plants sprayed
Source text: (§1) For field tests the plots of 5 m^2 in size with potato plants affected by Fusarium moniliforme, Venturia inaequalis, Rhyzoctonia violaceae, Botrytis cinereae, Verticillium albo-atrum, Diplodia zeae, Fusarium oxysporum, Rhoma betae, Rhyzoctonia aderholdii, Aspergillus niger, Alternaria sobani, Botrytis allii, Aspergillus fumigatis, Fusarium culmorum, Penicillium cyclopium were sprayed with the fungicide of the invention. To compare, the similar plots of the affected potato plants were aprayed with the known compositions indicated above.

Botrytis cinereae [2] = assay: as above; type: in vivo; details: 5 m^2 plots of affected potato plants sprayed
Source text: as §1

Verticillium albo-atrum [3] = assay: as above; type: in vivo; details: 5 m^2 plots of affected potato plants sprayed
Source text: as §1

Fusarium oxysporum [4] = assay: as above; type: in vivo; details: 5 m^2 plots of affected potato plants sprayed
Source text: as §1

Alternaria sobani [5] = assay: as above; type: in vivo; details: 5 m^2 plots of affected potato plants sprayed
Source text: as §1

Diplodia zeae [6] = assay: as above; type: in vivo; details: 5 m^2 plots of affected potato plants sprayed
Source text: as §1

Aspergillus niger [7] = assay: as above; type: in vivo; details: 5 m^2 plots of affected potato plants sprayed
Source text: as §1

Penicillium cyclopium [8] = assay: as above; type: in vivo; details: 5 m^2 plots of affected potato plants sprayed
Source text: as §1

Fusarium moniliforme [9] = assay: as above; type: in vivo; details: 5 m^2 plots of affected potato plants sprayed
Source text: as §1

Aspergillus fumigatis [10] = assay: as above; type: in vivo; details: 5 m^2 plots of affected potato plants sprayed
Source text: as §1

Rhoma betae [11] = assay: as above; type: in vivo; details: 5 m^2 plots of affected potato plants sprayed
Source text: as §1

Botrytis allii [12] = assay: as above; type: in vivo; details: 5 m^2 plots of affected potato plants sprayed
Source text: as §1

Rhyzoctonia aderholdii [13] = assay: as above; type: in vivo; details: 5 m^2 plots of affected potato plants sprayed
Source text: as §1

Rhyzoctonia violaceae [14] = assay: as above; type: in vivo; details: 5 m^2 plots of affected potato plants sprayed
Source text: as §1

Fusarium culmorum [15] = assay: as above; type: in vivo; details: 5 m^2 plots of affected potato plants sprayed
Source text: as §1

Venturia inaequalis [16] = assay: Inhibition of phytopathogenic fungi growth, laboratory test on potato-dextrose agar; type: cell-based; details: active principle 0.01 % by mass in potato-dextrose agar
Experimental: (§2) A fungicidal composition based on this compound was prepared in the form of a 0.01% solution thereof in distilled water. A fungicidal action of the composition, according to the invention, was tested for inhibition of vegetative fungi growth such as Fusarium moniliforme, Ventura inaequalis, Rhyzoctonia ciolaceae, Botrytis cinereae, Verticillium albo-atrum, Diplodia zeae, Fusarium oxysporum, Rhoma betae, Rhyzoctonia aderholdii, Aspergillus niger, Alternaria sobani, Botrytis allii, Aspergillus fumigatis, Fusarium culmorum, Penicillium cyclopium affecting potato, sugar beet, cotton seeds either in laboratory or field conditions. For testing it to the Petri dishes containing potato-dextrose agar the composition of the invention was.added at the concentration of an active principle of 0.01 % by mass. The Petri dishes containing the same agar culture were inoculated with a mycelium of phytopathogenic fungi. For control dishes the phytopathogenic fungi were inoculated on agar without using the composition of the invention. A fungicidal effect of the composition, according to the invention was tested in comparison with the known fungicidal compositions based on 2,3-dichloro-1,4-naphthoquinone, zinc N,N'-ethylene-bis-dithiocarbamate and tetramethylthiuram disulphide.

Botrytis cinereae [17] = assay: as above; type: cell-based; details: active principle 0.01 % by mass in potato-dextrose agar
Experimental: as §2

Verticillium albo-atrum [18] = assay: as above; type: cell-based; details: active principle 0.01 % by mass in potato-dextrose agar
Experimental: as §2

Fusarium oxysporum [19] = assay: as above; type: cell-based; details: active principle 0.01 % by mass in potato-dextrose agar
Experimental: as §2

Alternaria sobani [20] = assay: as above; type: cell-based; details: active principle 0.01 % by mass in potato-dextrose agar
Experimental: as §2

Diplodia zeae [21] = assay: as above; type: cell-based; details: active principle 0.01 % by mass in potato-dextrose agar
Experimental: as §2

Aspergillus niger [22] = assay: as above; type: cell-based; details: active principle 0.01 % by mass in potato-dextrose agar
Experimental: as §2

Penicillium cyclopium [23] = assay: as above; type: cell-based; details: active principle 0.01 % by mass in potato-dextrose agar
Experimental: as §2

Fusarium moniliforme [24] = assay: as above; type: cell-based; details: active principle 0.01 % by mass in potato-dextrose agar
Experimental: as §2

Aspergillus fumigatis [25] = assay: as above; type: cell-based; details: active principle 0.01 % by mass in potato-dextrose agar
Experimental: as §2

Rhoma betae [26] = assay: as above; type: cell-based; details: active principle 0.01 % by mass in potato-dextrose agar
Experimental: as §2

Botrytis allii [27] = assay: as above; type: cell-based; details: active principle 0.01 % by mass in potato-dextrose agar
Experimental: as §2

Rhyzoctonia aderholdii [28] = assay: as above; type: cell-based; details: active principle 0.01 % by mass in potato-dextrose agar
Experimental: as §2

Rhyzoctonia violaceae [29] = assay: as above; type: cell-based; details: active principle 0.01 % by mass in potato-dextrose agar
Experimental: as §2

Fusarium culmorum [30] = assay: as above; type: cell-based; details: active principle 0.01 % by mass in potato-dextrose agar
Experimental: as §2

Solubility (qualitative) = details: water, alcohols, acetone

O=C(NP(=O)(Nc1ccc(Br)cc1)Nc1ccc(Br)cc1)c1ccc(Br)cc1 [Example 15]
Inhibition of growth of phytopathogenic fungi colonies, % Venturia inaequalis test field (Venturia inaequalis [1]): 98% | Inhibition of growth of phytopathogenic fungi colonies, % Botrytis cinereae test field (Botrytis cinereae [2]): 98% | Inhibition of growth of phytopathogenic fungi colonies, % Verticillium albo--atrum test field (Verticillium albo-atrum [3]): 100% | Inhibition of growth of phytopathogenic fungi colonies, % Fusarium oxysporum test field (Fusarium oxysporum [4]): 81% | Inhibition of growth of phytopathogenic fungi colonies, % Alternaria sobani test field (Alternaria sobani [5]): 98% | Inhibition of growth of phytopathogenic fungi colonies, % Diplodia zeae test field (Diplodia zeae [6]): 98% | Inhibition of growth of phytopathogenic fungi colonies, % Aspergillus niger test field (Aspergillus niger [7]): 98% | Inhibition of growth of phytopathogenic fungi colonies, % Penicillium cyclopium Tests field (Penicillium cyclopium [8]): 89% | Inhibition of growth of phytopathogenic fungi colonies, % Fusatium monili-forme test field (Fusarium moniliforme [9]): 99% | Inhibition of growth of phytopathogenic fungi colonies, % Aspergillus fumigatis Tests field (Aspergillus fumigatis [10]): 80% | Inhibition of growth of phytopathogenic fungi colonies, % Rhoma betae test field (Rhoma betae [11]): 98% | Inhibition of growth of phytopathogenic fungi colonies, % Botrytis allii test field (Botrytis allii [12]): 96% | Inhibition of growth of phytopathogenic fungi colonies, % Rhyzoctonia aderholdii test field (Rhyzoctonia aderholdii [13]): 99% | Inhibition of growth of phytopathogenic fungi colonies, % Rhyzoctonia violaceae test field (Rhyzoctonia violaceae [14]): 99% | Inhibition of growth of phytopathogenic fungi colonies, % Fusarium culmorum Tests field (Fusarium culmorum [15]): 100% | Inhibition of growth of phytopathogenic fungi colonies, % Venturia inaequalis test laboratory (Venturia inaequalis [16]): 100% | Inhibition of growth of phytopathogenic fungi colonies, % Botrytis cinereae test laboratory (Botrytis cinereae [17]): 100% | Inhibition of growth of phytopathogenic fungi colonies, % Verticillium albo--atrum test laboratory (Verticillium albo-atrum [18]): 100% | Inhibition of growth of phytopathogenic fungi colonies, % Fusarium oxysporum test laboratory (Fusarium oxysporum [19]): 83% | Inhibition of growth of phytopathogenic fungi colonies, % Alternaria sobani test laboratory (Alternaria sobani [20]): 100% | Inhibition of growth of phytopathogenic fungi colonies, % Diplodia zeae test laboratory (Diplodia zeae [21]): 100% | Inhibition of growth of phytopathogenic fungi colonies, % Aspergillus niger test laboratory (Aspergillus niger [22]): 100% | Inhibition of growth of phytopathogenic fungi colonies, % Penicillium cyclopium Tests laboratory (Penicillium cyclopium [23]): 100% | Inhibition of growth of phytopathogenic fungi colonies, % Fusatium monili-forme test laboratory (Fusarium moniliforme [24]): 100% | Inhibition of growth of phytopathogenic fungi colonies, % Aspergillus fumigatis Tests laboratory (Aspergillus fumigatis [25]): 88% | Inhibition of growth of phytopathogenic fungi colonies, % Rhoma betae test laboratory (Rhoma betae [26]): 100% | Inhibition of growth of phytopathogenic fungi colonies, % Botrytis allii test laboratory (Botrytis allii [27]): 99% | Inhibition of growth of phytopathogenic fungi colonies, % Rhyzoctonia aderholdii test laboratory (Rhyzoctonia aderholdii [28]): 100% | Inhibition of growth of phytopathogenic fungi colonies, % Rhyzoctonia violaceae test laboratory (Rhyzoctonia violaceae [29]): 100% | Inhibition of growth of phytopathogenic fungi colonies, % Fusarium culmorum Tests laboratory (Fusarium culmorum [30]): 100% | solubility (Solubility (qualitative)): soluble in water, alcohols, acetone

Source: EP0407583A1, “DERIVATIVES OF DICHLOR[…] ACYLAMIDO[…] AND INSECTICIDAL, FU[…] HEMATOCIDAL PREPARATIONS BASED ON THEM” (priority 1989, dated 1990)
